What was measured:
[1] = molecular target: T1, Cholinesterase (Homo sapiens, UniProt P06276); assay: Inhibition of BChE (unknown origin) incubated for 10 mins by Ellman's method
[2] = molecular target: Cholinesterase (Equus caballus, UniProt P81908); assay: Inhibition of equine serum BuChE using S-butyrylthiocholine chloride as substrate by Ellman's method; format: cell-free
[3] = molecular target: T2, Acetylcholinesterase (Homo sapiens, UniProt P22303); assay: Inhibition of human recombinant AChE using acetylthiocholine iodide as substrate preincubated for 30 mins followed by substrate addition and measured for 60 mins by Ellman's method
[4] = molecular target: T3, Amine oxidase [flavin-containing] A (Homo sapiens, UniProt P21397); assay: Inhibition of human recombinant MAO-A using kynuramine as substrate by incubated for 75 mins by spectrophotometric analysis
T3 sequence (P21397 whole entry): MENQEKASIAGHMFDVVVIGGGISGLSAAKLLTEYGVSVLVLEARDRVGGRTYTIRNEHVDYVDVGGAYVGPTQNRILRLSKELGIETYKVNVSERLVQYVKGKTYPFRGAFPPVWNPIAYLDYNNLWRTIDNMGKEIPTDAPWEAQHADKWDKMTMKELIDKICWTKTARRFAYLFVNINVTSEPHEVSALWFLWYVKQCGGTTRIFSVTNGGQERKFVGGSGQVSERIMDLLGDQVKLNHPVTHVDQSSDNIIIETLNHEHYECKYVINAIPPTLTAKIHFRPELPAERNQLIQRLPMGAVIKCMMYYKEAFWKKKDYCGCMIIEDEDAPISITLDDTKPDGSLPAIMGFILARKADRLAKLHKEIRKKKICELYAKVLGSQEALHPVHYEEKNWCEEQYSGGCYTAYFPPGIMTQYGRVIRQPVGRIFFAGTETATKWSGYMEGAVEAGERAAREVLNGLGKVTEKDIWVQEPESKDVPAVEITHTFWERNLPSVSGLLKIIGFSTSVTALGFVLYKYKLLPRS

[5] = molecular target: T4, Amine oxidase [flavin-containing] B (Homo sapiens, UniProt P27338); assay: Inhibition of human recombinant MAO-B using benzylamine as substrate by fluorescence based analysis
T4 sequence (P27338 whole entry): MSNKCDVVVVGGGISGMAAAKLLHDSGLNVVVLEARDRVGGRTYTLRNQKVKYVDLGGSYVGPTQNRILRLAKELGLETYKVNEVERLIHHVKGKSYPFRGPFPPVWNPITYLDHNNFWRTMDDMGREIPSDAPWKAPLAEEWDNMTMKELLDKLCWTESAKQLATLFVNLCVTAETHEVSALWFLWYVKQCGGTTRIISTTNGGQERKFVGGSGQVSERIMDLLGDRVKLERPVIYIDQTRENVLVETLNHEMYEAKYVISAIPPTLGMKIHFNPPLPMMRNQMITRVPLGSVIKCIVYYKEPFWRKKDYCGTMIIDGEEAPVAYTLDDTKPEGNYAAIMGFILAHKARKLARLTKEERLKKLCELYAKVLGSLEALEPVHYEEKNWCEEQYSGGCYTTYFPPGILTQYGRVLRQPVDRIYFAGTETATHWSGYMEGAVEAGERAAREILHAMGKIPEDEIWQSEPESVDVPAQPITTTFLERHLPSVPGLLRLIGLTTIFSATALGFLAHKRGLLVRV

[6] = molecular target: Acetylcholinesterase (Electrophorus electricus, UniProt O42275); assay: Inhibition of electric eel AChE using acetylthiocholine iodide as substrate by Ellman's method
[7] = Inhibition of equine serum BChE using butyrylthiocholine iodide as substrate by measured after 30 mins Ellman's method; format: cell-free, Equus caballus
[8] = Inhibition of equine serum BChE using butyrylthiocholine iodide as substrate incubated for 30 mins by Ellman's method; set-up: species or system Equus caballus
[9] = molecular target: Indoleamine 2,3-dioxygenase 1 (Homo sapiens, UniProt P14902); assay: Inhibition of IDO1 (unknown origin)
[10] = molecular target: T2, Acetylcholinesterase; assay: Inhibition of human AChE using acetylthiocholine iodide as substrate by Ellman's method
[11] = molecular target: T1, Cholinesterase; assay: Inhibition of human BChE using butyrylthiocholineiodide as substrate by Ellman's method

T1 sequence (P06276 whole entry): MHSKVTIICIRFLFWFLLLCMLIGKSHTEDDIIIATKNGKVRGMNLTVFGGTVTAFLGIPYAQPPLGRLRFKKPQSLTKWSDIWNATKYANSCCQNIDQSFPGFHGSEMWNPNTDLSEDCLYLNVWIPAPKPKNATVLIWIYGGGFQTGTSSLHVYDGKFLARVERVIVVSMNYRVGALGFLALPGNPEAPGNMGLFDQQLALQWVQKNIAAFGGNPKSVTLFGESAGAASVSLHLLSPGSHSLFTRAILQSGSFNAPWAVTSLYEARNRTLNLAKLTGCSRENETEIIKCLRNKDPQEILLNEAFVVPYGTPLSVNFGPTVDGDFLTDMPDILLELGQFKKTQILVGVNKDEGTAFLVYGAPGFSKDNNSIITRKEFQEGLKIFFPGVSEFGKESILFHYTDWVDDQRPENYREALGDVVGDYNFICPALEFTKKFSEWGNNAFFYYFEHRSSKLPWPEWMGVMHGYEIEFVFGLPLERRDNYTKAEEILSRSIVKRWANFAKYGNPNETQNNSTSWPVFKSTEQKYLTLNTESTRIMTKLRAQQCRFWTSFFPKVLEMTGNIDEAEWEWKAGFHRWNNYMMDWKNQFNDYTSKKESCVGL
T2 sequence (P22303 whole entry): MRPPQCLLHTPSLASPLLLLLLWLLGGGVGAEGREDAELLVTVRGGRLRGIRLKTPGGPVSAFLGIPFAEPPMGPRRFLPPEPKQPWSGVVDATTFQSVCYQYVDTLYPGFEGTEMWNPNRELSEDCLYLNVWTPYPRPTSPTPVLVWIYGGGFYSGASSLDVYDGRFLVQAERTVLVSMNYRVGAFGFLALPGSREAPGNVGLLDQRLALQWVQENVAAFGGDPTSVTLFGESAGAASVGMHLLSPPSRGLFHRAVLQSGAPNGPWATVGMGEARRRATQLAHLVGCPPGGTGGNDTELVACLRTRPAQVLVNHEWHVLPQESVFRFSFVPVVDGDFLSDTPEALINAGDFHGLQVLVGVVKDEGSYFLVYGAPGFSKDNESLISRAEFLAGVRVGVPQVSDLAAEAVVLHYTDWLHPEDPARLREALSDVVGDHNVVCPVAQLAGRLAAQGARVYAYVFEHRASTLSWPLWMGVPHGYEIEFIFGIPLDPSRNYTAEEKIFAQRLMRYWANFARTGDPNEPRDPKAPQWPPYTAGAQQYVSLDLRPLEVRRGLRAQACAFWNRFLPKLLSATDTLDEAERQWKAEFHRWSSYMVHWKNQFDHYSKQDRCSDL
Sequence of Indoleamine 2,3-dioxygenase 1 (P14902 whole entry): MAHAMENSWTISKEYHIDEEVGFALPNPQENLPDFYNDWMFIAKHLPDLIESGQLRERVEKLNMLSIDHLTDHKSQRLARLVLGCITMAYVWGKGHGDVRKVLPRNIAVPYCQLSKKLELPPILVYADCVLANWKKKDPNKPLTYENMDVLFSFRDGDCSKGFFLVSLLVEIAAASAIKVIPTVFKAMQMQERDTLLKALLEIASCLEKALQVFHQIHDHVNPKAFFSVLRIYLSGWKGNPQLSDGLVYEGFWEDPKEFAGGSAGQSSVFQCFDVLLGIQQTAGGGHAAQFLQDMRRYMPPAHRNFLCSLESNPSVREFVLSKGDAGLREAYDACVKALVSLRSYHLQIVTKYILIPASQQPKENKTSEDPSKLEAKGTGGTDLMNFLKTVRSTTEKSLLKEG
Sequence of Acetylcholinesterase (Electrophorus electricus, UniProt O42275) (O42275 whole entry): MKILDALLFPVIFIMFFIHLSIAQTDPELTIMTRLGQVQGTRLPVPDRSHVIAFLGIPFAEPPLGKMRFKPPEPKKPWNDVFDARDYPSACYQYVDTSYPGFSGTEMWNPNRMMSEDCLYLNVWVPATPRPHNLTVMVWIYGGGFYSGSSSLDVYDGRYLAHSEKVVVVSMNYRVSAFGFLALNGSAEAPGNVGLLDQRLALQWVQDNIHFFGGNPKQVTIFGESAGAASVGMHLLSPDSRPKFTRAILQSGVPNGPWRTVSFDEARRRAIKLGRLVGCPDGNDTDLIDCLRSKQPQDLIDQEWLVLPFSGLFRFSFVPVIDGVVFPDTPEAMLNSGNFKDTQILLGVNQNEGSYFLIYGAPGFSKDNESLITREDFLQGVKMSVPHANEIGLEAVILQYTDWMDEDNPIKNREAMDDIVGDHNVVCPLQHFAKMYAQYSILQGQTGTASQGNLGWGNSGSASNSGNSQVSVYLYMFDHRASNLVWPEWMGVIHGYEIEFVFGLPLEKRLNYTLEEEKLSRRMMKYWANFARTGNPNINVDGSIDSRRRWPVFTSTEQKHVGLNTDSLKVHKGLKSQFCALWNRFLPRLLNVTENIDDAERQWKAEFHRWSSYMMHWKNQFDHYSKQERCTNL
Sequence of Cholinesterase (Equus caballus, UniProt P81908) (P81908 whole entry): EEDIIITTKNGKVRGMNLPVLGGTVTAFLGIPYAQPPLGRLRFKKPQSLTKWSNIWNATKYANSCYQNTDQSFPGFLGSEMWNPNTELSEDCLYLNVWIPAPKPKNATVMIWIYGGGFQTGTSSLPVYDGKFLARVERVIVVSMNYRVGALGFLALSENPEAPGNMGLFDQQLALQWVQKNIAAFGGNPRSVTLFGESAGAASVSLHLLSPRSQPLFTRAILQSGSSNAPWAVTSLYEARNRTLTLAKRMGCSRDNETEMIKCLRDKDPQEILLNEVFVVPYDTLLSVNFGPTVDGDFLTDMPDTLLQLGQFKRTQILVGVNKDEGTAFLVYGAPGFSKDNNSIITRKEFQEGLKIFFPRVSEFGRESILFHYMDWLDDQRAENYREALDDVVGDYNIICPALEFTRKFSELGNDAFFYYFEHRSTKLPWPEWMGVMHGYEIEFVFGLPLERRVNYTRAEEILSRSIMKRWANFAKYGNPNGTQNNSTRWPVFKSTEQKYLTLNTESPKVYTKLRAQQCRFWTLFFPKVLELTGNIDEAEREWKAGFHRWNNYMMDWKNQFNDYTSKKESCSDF

SMILES: CN1CCc2c(c3cc(F)ccc3n2CCNC23CC4CC(C)(CC(C)(C4)C2)C3)C1
- IC50 [1]: 39.7 µM
- IC50 [2]: 0.72 µM

SMILES: Clc1ccc(C(Cn2ccnc2)OCc2csc3c(Cl)cccc23)c(Cl)c1 (stereo unspecified) [SERTACONAZOLE]
- IC50 [3]: 0.1 µM

SMILES: COc1cccc(COc2ccc(C(C)=O)c(OCc3cn(CCc4c[nH]c5ccccc45)nn3)c2)c1
- IC50 [4]: 74.7 µM
- IC50 [5]: 3.71 µM
- IC50 [6]: > 100 µM
- IC50 [7]: 0.92 µM

SMILES: COc1cccc(COC(Cn2ccnc2)c2ccc(F)c(F)c2)c1 (stereo unspecified)
- IC50 [8]: 13.2 µM
- IC50 [9]: 22.8 µM

SMILES: Cc1cc2c(cc1C)[n+](Cc1ccccc1C)cn2C(c1ccccc1)c1ccccc1
- IC50 [10]: 4.19 µM
- IC50 [11]: 0.15 µM

Reference: ChEMBL document CHEMBL5579820, “New insights into butyrylcholinesterase: Pharmaceutical applications, selective inhibitors and multitarget-directed ligands” (Eur J Med Chem, 2024)
